Laboratory results from ChEMBL document CHEMBL4431371, “Targeting the Cystic Fibrosis Transmembrane Conductance Regulator (CFTR) Protein for the Treatment of Cystic Fibrosis” (ACS Med Chem Lett, 2016).

What was measured:
[1] = target: T1, Cystic fibrosis transmembrane conductance regulator (Homo sapiens, UniProt P13569, F508DEL); assay: (§1) Corrector activity at CFTR F508del mutant in human bronchial epithelial cells incubated for 18 to 24 hrs by TECC-based conductance assay
[2] = system: Cystic fibrosis transmembrane conductance regulator (Homo sapiens), P13569 [F508del]; assay: as §1
[3] = target: T1, Cystic fibrosis transmembrane conductance regulator; assay: (§2) Corrector activity at CFTR F508del mutant (unknown origin) expressed in human CFBE41o cells incubated for 18 to 24 hrs by CSE-HRP assay; assay type: cell-based
[4] = system: Cystic fibrosis transmembrane conductance regulator (Homo sapiens), P13569 [F508del]; assay: as §2; assay type: cell-based

T1 sequence (P13569 as listed by the source): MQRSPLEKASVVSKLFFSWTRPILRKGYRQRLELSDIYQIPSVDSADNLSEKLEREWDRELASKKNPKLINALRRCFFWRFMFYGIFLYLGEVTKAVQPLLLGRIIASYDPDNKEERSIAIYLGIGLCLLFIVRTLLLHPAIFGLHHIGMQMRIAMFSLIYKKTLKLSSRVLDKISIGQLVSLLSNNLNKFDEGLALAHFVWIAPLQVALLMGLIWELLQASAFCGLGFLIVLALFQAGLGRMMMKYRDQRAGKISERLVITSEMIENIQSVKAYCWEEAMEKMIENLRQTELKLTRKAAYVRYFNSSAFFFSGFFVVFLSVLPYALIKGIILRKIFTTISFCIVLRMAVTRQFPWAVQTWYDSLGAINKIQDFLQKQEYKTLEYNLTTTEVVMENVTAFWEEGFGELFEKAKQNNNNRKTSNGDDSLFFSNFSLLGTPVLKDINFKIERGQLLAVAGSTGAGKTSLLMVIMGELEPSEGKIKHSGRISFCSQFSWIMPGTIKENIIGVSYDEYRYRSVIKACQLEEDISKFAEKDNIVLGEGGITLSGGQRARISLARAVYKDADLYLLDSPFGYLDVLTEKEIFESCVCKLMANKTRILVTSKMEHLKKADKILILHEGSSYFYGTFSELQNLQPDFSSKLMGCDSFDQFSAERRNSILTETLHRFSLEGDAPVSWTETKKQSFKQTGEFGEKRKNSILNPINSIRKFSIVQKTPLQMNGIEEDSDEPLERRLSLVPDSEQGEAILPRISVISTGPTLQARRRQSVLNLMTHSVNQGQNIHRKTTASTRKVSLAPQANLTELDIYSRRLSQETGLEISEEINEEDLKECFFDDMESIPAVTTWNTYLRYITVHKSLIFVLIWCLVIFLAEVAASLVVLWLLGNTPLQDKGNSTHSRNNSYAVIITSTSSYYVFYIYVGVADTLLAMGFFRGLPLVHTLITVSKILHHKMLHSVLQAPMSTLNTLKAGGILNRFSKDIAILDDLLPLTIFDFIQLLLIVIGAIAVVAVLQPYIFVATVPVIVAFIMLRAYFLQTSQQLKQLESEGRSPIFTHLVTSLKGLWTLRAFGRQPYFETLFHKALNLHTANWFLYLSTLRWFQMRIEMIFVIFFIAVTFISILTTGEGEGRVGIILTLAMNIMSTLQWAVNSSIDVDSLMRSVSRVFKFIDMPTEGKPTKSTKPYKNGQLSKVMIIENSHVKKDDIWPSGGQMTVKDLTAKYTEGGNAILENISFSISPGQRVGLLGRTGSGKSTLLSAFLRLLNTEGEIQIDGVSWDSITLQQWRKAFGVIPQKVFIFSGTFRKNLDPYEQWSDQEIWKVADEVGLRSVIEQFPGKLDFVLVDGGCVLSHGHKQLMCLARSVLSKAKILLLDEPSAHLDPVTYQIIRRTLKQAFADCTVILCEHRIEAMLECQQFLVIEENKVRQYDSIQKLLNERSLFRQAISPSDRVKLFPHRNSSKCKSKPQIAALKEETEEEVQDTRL
Cystic fibrosis transmembrane conductance regulator (Homo sapiens), P13569 [F508del], sequence (P13569 as listed by the source): as above

| EC50 [1] | max activation [2] | EC50 [3] | max activation [4] | SMILES |
| --- | --- | --- | --- | --- |
| 260 nM | 73% | 300 nM | 81% | O=C(O)c1ccc([C@H]2C[C@@H](NC(=O)C3(c4ccc5c(c4)OC(F)(F)O5)CC3)C[C@@H](c3ccccc3)O2)cc1 |
| 1340 nM | 73% | 2860 nM | 113% | O=C(O)c1ccc([C@H]2C[C@@H](NC(=O)C3(c4ccc5c(c4)OC(F)(F)O5)CC3)CCO2)cc1 (racemic) |
| 100 nM | 94% | 280 nM | 109% | O=C(O)c1cccc([C@H]2C[C@@H](NC(=O)C3(c4ccc5c(c4)OC(F)(F)O5)CC3)C[C@@H](c3ccccc3)O2)c1 |
| – | – | 850 nM | 71% | O=C(O)c1cccc([C@H]2C[C@@H](NC(=O)C3(c4ccc5c(c4)OC(F)(F)O5)CC3)CCO2)c1 (racemic) |
| – | – | 20000 nM | 16% | O=C(O)c1cccc([C@@H]2C[C@H](NC(=O)C3(c4ccc5c(c4)OC(F)(F)O5)CC3)C[C@H](c3ccccc3)O2)c1 |
| – | – | 1160 nM | 106% | CCOC(=O)c1cc(C)cc([C@H]2C[C@@H](NC(=O)C3(c4ccc5c(c4)OC(F)(F)O5)CC3)C[C@@H](c3ccccc3)O2)c1 (racemic) |
